# Experimental data: ChEMBL document CHEMBL1201862, “PubChem BioAssay data set” (2004)
#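 Where inhibition never reached the appropriate level, the endpoint shown equals the highest concentration tested. Otherwise, values were interpolated linearly from a five-concentration, 48-hour dose response in 96-well plates. At the GI50, growth is halved.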 Calls of active or inactive are those of the source. No stated cut-off is given here; in the data, active = GI50 up to about 1.1 µM and inactive = higher.
# Key:
# Experiment in all cases: inhibition of tumour cell growth, NCI panel, 48 h
# [1] = tested on: 786-0
# [2] = tested on: KM12
# [3] = tested on: M14
# [4] = tested on: SNB-75
# [5] = tested on: HCT-116
# [6] = tested on: CCRF-CEM
# [7] = tested on: OVCAR-3
# [8] = tested on: ACHN
# [9] = tested on: SF-539
# [10] = tested on: HCC 2998
# [11] = tested on: SNB-19
# [12] = tested on: SW-620
# [13] = tested on: MDA-MB-435
# [14] = tested on: A498
# [15] = tested on: EKVX
# [16] = tested on: HCT-15
# [17] = tested on: NCI/ADR-RES
# [18] = tested on: NCI-H23
# [19] = tested on: HOP-92
# [20] = tested on: UO-31
# [21] = tested on: SF-295
# [22] = tested on: SR
# [23] = tested on: BT-549
# [24] = tested on: T47D
# [25] = tested on: SK-MEL-5
# [26] = tested on: COLO 205
# [27] = tested on: SK-MEL-2
# [28] = tested on: UACC-257
# [29] = tested on: K562
# [30] = tested on: SK-MEL-28
# [31] = tested on: PC-3
# [32] = tested on: RPMI-8226
# [33] = tested on: HL-60
# [34] = tested on: IGROV-1
# [35] = tested on: NCI-H460
# [36] = tested on: UACC-62
# [37] = tested on: SN12C
# [38] = tested on: A549
# [39] = tested on: LOX IMVI
# [40] = tested on: U-251
# [41] = tested on: MOLT-4
# [42] = tested on: SK-OV-3
# [43] = tested on: OVCAR-8
# [44] = tested on: NCI-H226
# [45] = tested on: MCF7
# [46] = tested on: HOP-62
# [47] = tested on: MDA-N
# [48] = tested on: CAKI-1
# [49] = tested on: OVCAR-5
# [50] = tested on: DU-145
# [51] = tested on: OVCAR-4
# [52] = tested on: SF-268
# [53] = tested on: Hs-578T
# [54] = tested on: RXF 393
# [55] = tested on: HT-29
# [56] = tested on: TK-10
# [57] = tested on: NCI-H522
# [58] = tested on: MDA-MB-231
# [59] = tested on: Malme-3M
structure (smiles),measurement,setting,value
N#C/C(C(=O)Nc1ccc(Cl)cc1)=C(/N)N1CCCCC1,GI50,[1],> 100 µM (inactive)
same,GI50,[2],> 100 µM (inactive)
same,GI50,[3],85.1 µM (inactive)
same,GI50,[4],24.7 µM (inactive)
same,GI50,[5],99.5 µM (inactive)
same,GI50,[6],> 100 µM (inactive)
same,GI50,[7],> 100 µM (inactive)
same,GI50,[8],> 100 µM (inactive)
same,GI50,[9],75.7 µM (inactive)
same,GI50,[10],> 100 µM (inactive)
same,GI50,[11],36.8 µM (inactive)
same,GI50,[12],> 100 µM (inactive)
same,GI50,[13],> 100 µM (inactive)
same,GI50,[14],> 100 µM (inactive)
same,GI50,[15],45.1 µM (inactive)
same,GI50,[16],> 100 µM
same,GI50,[17],79.3 µM (inactive)
same,GI50,[18],64.4 µM (inactive)
same,GI50,[19],> 100 µM (inactive)
same,GI50,[20],22.3 µM (inactive)
same,GI50,[21],54 µM (inactive)
same,GI50,[22],> 100 µM (inactive)
same,GI50,[23],> 100 µM (inactive)
same,GI50,[24],> 100 µM (inactive)
same,GI50,[25],> 100 µM (inactive)
same,GI50,[26],> 100 µM (inactive)
same,GI50,[27],> 100 µM (inactive)
same,GI50,[28],> 100 µM (inactive)
same,GI50,[29],> 100 µM (inactive)
same,GI50,[30],> 100 µM (inactive)
same,GI50,[31],> 100 µM (inactive)
same,GI50,[32],> 100 µM (inactive)
same,GI50,[33],10 µM (inactive)
same,GI50,[34],66.5 µM (inactive)
same,GI50,[35],> 100 µM (inactive)
same,GI50,[36],42.5 µM (inactive)
same,GI50,[37],> 100 µM (inactive)
same,GI50,[38],> 100 µM (inactive)
same,GI50,[39],83.4 µM (inactive)
same,GI50,[40],56.5 µM (inactive)
same,GI50,[41],> 100 µM (inactive)
same,GI50,[42],72.6 µM (inactive)
same,GI50,[43],41.2 µM (inactive)
same,GI50,[44],92.3 µM (inactive)
same,GI50,[45],> 100 µM (inactive)
same,GI50,[46],41.3 µM (inactive)
same,GI50,[47],> 100 µM (inactive)
same,GI50,[48],> 100 µM (inactive)
same,GI50,[49],> 100 µM (inactive)
same,GI50,[50],> 100 µM (inactive)
Cc1cc(O)c2c(=O)c3ccccc3[nH]c2c1,GI50,[1],15.6 µM (inactive)
same,GI50,[2],18.5 µM (inactive)
same,GI50,[3],18.1 µM (inactive)
same,GI50,[4],29.2 µM (inactive)
same,GI50,[5],20.3 µM (inactive)
same,GI50,[6],24.1 µM (inactive)
same,GI50,[51],15.1 µM (inactive)
same,GI50,[7],29 µM (inactive)
same,GI50,[52],26.8 µM (inactive)
same,GI50,[8],21.5 µM (inactive)
same,GI50,[9],15.7 µM (inactive)
same,GI50,[10],37.3 µM (inactive)
same,GI50,[11],38.5 µM (inactive)
same,GI50,[12],41.6 µM (inactive)
same,GI50,[13],27.4 µM (inactive)
same,GI50,[14],32.8 µM (inactive)
same,GI50,[15],41.1 µM (inactive)
same,GI50,[16],11.4 µM
same,GI50,[53],45.3 µM (inactive)
same,GI50,[17],23.5 µM (inactive)
same,GI50,[18],15 µM (inactive)
same,GI50,[19],25.9 µM (inactive)
same,GI50,[54],27 µM (inactive)
same,GI50,[21],20 µM (inactive)
same,GI50,[22],16 µM (inactive)
same,GI50,[23],24.8 µM (inactive)
same,GI50,[25],14.7 µM (inactive)
same,GI50,[26],13.2 µM (inactive)
same,GI50,[27],81.7 µM (inactive)
same,GI50,[55],8.63 µM (inactive)
same,GI50,[28],20.1 µM (inactive)
same,GI50,[29],9.77 µM (inactive)
same,GI50,[30],42.7 µM (inactive)
same,GI50,[31],19.3 µM (inactive)
same,GI50,[56],49.2 µM (inactive)
same,GI50,[32],11.8 µM (inactive)
same,GI50,[33],28.3 µM (inactive)
same,GI50,[34],13.3 µM (inactive)
same,GI50,[35],14.9 µM (inactive)
same,GI50,[36],> 10 µM (inactive)
same,GI50,[37],32.5 µM (inactive)
same,GI50,[38],29.4 µM (inactive)
same,GI50,[39],18.8 µM (inactive)
same,GI50,[40],40.8 µM (inactive)
same,GI50,[57],3.56 µM (inactive)
same,GI50,[58],32.4 µM (inactive)
same,GI50,[41],36.3 µM (inactive)
same,GI50,[59],32.7 µM (inactive)
same,GI50,[42],52.8 µM (inactive)
same,GI50,[43],23 µM (inactive)
same,GI50,[44],23.1 µM (inactive)
same,GI50,[45],0.133 µM (active)
same,GI50,[46],23.2 µM (inactive)
same,GI50,[47],42.9 µM (inactive)
same,GI50,[48],11.8 µM (inactive)
same,GI50,[49],18.9 µM (inactive)
same,GI50,[50],35.2 µM (inactive)
